According to ChEMBL document CHEMBL1152560, “Substituted 2-arylbenzothiazoles as kinase inhibitors: hit-to-lead optimization” (Bioorg Med Chem, 2009):

Columns and labels:
[1] = biological target: Vascular endothelial growth factor receptor 3 (Homo sapiens, UniProt P35916); assay: Residual activity of VEGFR3 at 0.1 uM by microplate scintillation counting
[2] = biological target: T1, NUAK family SNF1-like kinase 1 (Homo sapiens) (UniProt O60285); assay: Residual activity of ARK5 at 0.1 uM by microplate scintillation counting
T1 sequence (whole entry): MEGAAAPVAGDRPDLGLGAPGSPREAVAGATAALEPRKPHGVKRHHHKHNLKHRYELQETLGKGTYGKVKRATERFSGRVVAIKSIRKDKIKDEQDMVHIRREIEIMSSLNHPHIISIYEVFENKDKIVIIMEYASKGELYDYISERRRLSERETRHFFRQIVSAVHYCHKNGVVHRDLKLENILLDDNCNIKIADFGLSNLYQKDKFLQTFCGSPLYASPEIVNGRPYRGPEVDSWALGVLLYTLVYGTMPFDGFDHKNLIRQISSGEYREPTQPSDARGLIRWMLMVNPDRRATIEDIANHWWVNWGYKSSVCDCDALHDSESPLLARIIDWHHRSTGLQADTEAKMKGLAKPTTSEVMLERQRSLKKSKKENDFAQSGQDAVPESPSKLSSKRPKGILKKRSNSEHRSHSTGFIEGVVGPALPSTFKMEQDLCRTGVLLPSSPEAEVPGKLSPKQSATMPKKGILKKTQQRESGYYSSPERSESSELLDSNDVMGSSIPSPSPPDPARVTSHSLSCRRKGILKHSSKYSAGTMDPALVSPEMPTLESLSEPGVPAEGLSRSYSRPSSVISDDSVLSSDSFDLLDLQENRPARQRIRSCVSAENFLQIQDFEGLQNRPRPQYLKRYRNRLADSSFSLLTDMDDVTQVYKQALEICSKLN

[3] = biological target: T2, Tyrosine-protein kinase ITK/TSK (Homo sapiens) (UniProt Q08881); assay: Residual activity of ITK at 10 uM by microplate scintillation counting
T2 sequence (whole entry): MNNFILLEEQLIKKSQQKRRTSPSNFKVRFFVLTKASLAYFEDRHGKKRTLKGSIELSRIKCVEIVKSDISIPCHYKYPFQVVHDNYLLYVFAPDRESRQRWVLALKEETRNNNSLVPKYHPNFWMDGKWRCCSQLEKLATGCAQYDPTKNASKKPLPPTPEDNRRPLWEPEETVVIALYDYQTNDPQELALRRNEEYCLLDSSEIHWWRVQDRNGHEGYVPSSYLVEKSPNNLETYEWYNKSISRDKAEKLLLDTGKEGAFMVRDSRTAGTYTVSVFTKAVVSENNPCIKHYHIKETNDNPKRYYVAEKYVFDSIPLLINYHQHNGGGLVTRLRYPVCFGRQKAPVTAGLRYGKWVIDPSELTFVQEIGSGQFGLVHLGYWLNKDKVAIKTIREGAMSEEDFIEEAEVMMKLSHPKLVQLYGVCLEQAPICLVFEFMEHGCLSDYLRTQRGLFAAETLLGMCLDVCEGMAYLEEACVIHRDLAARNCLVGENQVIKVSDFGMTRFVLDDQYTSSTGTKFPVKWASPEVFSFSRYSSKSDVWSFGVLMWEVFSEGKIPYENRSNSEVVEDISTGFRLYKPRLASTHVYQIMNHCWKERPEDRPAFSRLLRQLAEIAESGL

[4] = biological target: Serine/threonine-protein kinase 16 (Homo sapiens) (UniProt O75716); assay: Residual activity of TSF1 at 10 uM by microplate scintillation counting
Sequence of Serine/threonine-protein kinase 16 (Homo sapiens) (O75716 whole entry): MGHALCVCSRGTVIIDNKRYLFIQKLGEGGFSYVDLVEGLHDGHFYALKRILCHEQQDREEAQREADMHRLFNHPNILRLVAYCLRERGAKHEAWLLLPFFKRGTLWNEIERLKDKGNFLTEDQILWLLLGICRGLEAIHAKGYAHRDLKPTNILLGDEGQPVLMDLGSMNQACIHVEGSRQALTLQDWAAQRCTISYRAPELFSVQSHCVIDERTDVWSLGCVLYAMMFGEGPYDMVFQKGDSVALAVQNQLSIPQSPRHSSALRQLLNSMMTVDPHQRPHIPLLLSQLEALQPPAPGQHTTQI

[5] = biological target: Tyrosine-protein kinase Fes/Fps (Homo sapiens) (UniProt P07332); assay: Residual activity of FES at 0.1 uM by microplate scintillation counting
Sequence of Tyrosine-protein kinase Fes/Fps (Homo sapiens) (P07332 whole entry): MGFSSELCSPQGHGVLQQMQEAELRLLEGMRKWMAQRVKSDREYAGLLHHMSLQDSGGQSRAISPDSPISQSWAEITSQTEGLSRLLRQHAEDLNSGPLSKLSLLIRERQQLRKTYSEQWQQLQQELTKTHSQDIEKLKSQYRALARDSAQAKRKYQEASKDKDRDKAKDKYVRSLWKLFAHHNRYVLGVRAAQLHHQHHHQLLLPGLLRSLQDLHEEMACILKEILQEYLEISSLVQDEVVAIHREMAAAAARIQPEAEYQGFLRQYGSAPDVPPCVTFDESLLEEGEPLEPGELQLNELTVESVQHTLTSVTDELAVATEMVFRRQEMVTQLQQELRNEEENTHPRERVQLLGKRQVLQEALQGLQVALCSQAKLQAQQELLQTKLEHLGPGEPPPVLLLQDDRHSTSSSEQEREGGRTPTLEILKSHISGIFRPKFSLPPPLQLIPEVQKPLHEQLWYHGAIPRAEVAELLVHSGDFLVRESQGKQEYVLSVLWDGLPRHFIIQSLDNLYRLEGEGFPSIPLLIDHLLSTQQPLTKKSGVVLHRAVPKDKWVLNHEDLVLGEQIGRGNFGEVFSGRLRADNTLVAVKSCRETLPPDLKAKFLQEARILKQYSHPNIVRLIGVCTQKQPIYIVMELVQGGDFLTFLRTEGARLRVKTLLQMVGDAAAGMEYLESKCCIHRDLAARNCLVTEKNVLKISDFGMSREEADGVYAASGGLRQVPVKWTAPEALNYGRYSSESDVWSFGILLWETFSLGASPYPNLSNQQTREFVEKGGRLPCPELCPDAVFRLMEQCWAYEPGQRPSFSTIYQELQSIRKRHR

[6] = biological target: T3, G protein-coupled receptor kinase 3 (Homo sapiens) (UniProt P35626); assay: Residual activity of GRK3 at 1 uM by microplate scintillation counting
T3 sequence (whole entry): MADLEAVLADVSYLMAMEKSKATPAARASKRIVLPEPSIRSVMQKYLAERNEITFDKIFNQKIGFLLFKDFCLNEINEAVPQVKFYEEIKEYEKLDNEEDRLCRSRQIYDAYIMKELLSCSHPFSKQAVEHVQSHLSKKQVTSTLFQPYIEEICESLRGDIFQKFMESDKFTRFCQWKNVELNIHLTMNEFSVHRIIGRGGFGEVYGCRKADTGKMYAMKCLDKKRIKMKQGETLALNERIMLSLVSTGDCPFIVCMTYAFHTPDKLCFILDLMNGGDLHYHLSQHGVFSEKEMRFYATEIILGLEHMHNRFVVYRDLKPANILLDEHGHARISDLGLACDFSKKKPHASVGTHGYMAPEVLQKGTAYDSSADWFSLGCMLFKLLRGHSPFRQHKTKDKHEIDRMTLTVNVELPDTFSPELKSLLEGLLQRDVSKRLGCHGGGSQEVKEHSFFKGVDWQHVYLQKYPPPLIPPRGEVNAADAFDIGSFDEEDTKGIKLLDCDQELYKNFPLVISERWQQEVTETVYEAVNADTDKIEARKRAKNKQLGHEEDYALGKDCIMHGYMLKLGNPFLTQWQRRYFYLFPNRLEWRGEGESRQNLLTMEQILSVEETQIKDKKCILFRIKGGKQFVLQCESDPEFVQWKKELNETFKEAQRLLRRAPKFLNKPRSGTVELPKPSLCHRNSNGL

Sequence of Vascular endothelial growth factor receptor 3 (P35916 whole entry): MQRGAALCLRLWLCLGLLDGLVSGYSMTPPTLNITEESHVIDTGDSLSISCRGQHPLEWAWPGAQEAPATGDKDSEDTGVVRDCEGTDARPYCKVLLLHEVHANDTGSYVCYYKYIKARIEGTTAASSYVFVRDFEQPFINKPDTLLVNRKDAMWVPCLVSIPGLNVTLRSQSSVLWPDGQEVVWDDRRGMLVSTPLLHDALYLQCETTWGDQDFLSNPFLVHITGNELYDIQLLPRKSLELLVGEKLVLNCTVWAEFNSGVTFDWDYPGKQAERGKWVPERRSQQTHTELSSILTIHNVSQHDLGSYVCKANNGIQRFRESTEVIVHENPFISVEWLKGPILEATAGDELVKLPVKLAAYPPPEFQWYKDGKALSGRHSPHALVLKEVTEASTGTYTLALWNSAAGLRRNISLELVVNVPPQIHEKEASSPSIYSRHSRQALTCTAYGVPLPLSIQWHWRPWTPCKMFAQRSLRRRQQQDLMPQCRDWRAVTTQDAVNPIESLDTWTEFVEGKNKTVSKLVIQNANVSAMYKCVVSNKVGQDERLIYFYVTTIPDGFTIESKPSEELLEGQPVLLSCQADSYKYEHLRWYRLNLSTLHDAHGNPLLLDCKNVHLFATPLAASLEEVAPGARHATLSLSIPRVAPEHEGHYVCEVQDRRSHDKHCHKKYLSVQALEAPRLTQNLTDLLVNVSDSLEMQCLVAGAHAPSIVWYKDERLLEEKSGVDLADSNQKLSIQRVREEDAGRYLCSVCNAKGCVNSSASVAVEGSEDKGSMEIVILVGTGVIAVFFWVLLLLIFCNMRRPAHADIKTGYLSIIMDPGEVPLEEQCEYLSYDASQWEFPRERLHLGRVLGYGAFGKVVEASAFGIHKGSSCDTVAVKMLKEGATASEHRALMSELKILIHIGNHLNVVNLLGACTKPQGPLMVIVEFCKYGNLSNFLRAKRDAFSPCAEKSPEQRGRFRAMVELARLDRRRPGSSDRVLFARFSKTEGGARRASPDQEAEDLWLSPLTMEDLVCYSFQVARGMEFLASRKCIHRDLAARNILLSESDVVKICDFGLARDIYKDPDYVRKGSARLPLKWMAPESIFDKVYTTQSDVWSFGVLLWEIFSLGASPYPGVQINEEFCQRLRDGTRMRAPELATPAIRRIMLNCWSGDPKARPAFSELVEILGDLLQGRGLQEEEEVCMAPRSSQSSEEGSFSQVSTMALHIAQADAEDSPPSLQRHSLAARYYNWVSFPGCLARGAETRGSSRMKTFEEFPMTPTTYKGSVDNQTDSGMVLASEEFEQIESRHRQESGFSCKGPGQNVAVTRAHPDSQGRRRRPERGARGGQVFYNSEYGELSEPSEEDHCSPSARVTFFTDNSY

Row | residual activity [1] [%] | residual activity [2] [%] | residual activity [3] [%] | residual activity [4] [%] | residual activity [5] [%] | residual activity [6] [%] | Compound
1 | 57 | 83 | 117 | 56 | 107 | 98 | COc1cc2c(Oc3ccc(-c4nc5ccccc5s4)cc3)ncnc2cc1OCCCN1CCCC1
2 | 64 | 94 | 63 | 59 | 101 | 103 | COc1cc2c(Oc3ccc(-c4nc5ccccc5s4)cc3F)ncnc2cc1OCCCN1CCN(C)CC1
3 | 60 | 98 | 99 | 66 | 102 | 102 | COc1cc2c(Oc3ccc(-c4nc5ccccc5s4)cc3)ncnc2cc1OCCCN1CCN(C)CC1
